In the assay the target is T1, human ACC2 (Homo sapiens, UniProt O00763).
T1 construct: made in house; host or cells: insect cells (baculoviral expression system)
T1 sequence (O00763 129-2458 limits assumed): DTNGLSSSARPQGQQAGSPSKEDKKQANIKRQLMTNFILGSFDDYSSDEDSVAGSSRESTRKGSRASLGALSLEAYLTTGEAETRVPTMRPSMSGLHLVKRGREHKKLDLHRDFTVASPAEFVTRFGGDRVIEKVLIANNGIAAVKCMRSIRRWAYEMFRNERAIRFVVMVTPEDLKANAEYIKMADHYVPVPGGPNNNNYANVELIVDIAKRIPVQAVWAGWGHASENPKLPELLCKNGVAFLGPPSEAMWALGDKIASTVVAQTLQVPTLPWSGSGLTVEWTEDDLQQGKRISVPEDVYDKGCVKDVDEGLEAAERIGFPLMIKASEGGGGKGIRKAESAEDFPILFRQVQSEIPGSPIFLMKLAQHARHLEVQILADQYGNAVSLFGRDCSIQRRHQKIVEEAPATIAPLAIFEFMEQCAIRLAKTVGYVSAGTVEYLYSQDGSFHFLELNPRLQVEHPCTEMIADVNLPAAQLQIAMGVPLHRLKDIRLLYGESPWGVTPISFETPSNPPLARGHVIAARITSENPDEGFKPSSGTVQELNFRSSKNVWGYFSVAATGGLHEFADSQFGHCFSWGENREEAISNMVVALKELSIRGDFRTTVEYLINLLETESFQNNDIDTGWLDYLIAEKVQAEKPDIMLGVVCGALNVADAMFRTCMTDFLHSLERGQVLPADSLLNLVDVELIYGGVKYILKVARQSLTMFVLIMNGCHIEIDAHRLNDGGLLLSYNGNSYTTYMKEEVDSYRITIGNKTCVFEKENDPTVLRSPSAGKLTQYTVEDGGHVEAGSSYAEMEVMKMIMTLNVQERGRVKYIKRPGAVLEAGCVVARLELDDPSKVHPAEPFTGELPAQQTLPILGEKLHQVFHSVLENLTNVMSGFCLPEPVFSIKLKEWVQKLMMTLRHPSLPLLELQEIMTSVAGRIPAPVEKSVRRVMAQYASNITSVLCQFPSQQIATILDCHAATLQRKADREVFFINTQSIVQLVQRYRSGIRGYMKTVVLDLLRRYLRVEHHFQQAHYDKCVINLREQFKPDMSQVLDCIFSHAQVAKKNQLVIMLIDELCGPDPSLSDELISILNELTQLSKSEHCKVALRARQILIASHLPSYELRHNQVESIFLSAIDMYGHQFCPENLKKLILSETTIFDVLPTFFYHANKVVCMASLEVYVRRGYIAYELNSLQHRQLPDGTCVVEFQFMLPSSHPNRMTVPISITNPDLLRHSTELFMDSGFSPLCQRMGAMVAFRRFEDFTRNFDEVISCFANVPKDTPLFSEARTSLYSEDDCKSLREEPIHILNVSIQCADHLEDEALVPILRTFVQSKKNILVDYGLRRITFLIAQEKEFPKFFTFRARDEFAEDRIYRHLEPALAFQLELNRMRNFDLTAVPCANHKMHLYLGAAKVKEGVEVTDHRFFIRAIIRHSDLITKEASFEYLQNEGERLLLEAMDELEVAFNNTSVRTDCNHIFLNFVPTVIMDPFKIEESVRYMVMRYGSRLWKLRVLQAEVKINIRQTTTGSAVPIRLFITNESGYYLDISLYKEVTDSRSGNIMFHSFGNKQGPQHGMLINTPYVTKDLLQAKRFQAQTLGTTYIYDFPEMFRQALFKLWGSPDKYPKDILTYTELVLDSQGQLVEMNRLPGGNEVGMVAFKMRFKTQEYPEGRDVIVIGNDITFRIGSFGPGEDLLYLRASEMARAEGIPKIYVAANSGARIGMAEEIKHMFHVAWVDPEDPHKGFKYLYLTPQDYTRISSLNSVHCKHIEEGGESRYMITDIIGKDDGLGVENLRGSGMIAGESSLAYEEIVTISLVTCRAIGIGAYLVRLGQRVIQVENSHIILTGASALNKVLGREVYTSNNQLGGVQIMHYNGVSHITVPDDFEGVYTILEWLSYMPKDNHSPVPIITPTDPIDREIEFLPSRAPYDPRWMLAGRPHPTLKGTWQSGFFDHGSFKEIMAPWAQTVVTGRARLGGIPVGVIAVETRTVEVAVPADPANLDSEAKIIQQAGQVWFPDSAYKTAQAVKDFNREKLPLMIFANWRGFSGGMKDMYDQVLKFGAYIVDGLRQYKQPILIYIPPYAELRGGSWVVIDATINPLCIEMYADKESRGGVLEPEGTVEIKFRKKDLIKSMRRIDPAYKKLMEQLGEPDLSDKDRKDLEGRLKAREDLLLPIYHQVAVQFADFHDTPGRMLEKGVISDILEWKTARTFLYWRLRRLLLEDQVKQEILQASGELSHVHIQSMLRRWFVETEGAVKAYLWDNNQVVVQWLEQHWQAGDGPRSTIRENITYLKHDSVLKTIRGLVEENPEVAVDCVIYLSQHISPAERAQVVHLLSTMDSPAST
Nature of the assay: ACC2 assay, spectrophotometric 384 well assay (NADH-linked, coupled lactate dehydrogenase/pyruvate kinase). The settings on record: ACC2 assay, hACC2 construct lacking 128 N-terminal amino acids, 25° C., 340 nm; read-out: IC50. It is filed as biochemical. An outline of the steps:
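Human ACC2 lacking N-terminal 128 aa, baculovirus/insect-cell expressed, anion-exchange purified; 100 mM Tris pH 7.5, 10 mM citrate, 25 mM KHCO3, 1% DMSO. Started with 200 μM NADH and acetyl-CoA plus 500 μM ATP; PK/LDH-coupled A340 decrease read 15 min at 25° C. IC50 by nonlinear fit of low-control-subtracted slopes.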
Regarding `CC(=O)N[C@@H](C)c1ccc(C2CCN(c3ccc(Cl)cc3C#N)CC2)cc1` [Example 1.171], the IC50 came out at 16300 nM. As for `CCC(CC)Oc1cc(N2CCC(c3ccc([C@H](C)NC(C)=O)cc3)CC2)ccn1` [Example 19.24], the figure is 240 nM; as for `COc1nc(OCC2CC2)ncc1N1CCC(c2ccc([C@H](C)NC(C)=O)cc2)CC1` [Example 16.11], 1300 nM. Regarding `CCOc1ccc(N2CCC(c3ccc([C@H](C)NC(=O)Cc4cccnc4)cc3)CC2)cc1` [Example 6.32], the IC50 came out at 860 nM. In the case of `CCOc1ccc(N2CCC(c3ccc([C@H](C)NC(=O)C4(C(F)(F)F)CC4)cc3)CC2)cc1` [Example 6.34], the IC50 was 250 nM. In the case of `CCOc1ccc(N2CCC(c3ccc([C@H](C)NC(=O)C4(C#N)CC4)cc3)CC2)cc1` [Example 6.20], the IC50 stood at 670 nM. As for `CC(=O)N[C@@H](C)c1ccc(C2CCN(c3ncc(-c4cscc4C)cn3)CC2)cc1` [Example 10.56], the figure is 320 nM; as for `CC(=O)N[C@@H](C)c1ccc(C2CCN(c3cc(NCC(C)C)ncn3)CC2)cc1` [Example 11.65], 4700 nM; as for `CC(=O)N[C@@H](C)c1ccc(C2CCN(c3ccc(OCC4CC4)nc3C#N)CC2)cc1` [Example 1.183], 150 nM. Take `CCOc1ccc(-c2ccnc(N3CCC(c4ccc([C@H](C)NC(C)=O)cc4)CC3)n2)cc1` [Example 22.12]: the IC50 stood at 3300 nM. For the compound `CC(=O)N[C@@H](C)c1ccc(C2CCN(c3cc(N(C)CC4CC4)ncn3)CC2)cc1` [Example 11.91], the IC50 amounted to 440 nM. `CCOc1ccc(N2CCC(c3ccc([C@H](C)NC(C)=O)cc3)CC2)nc1` [Example 5.1, (S)—N-{1-[4-(5′-Ethoxy-3,4,5,6-tetrahydro-2H-[1,2′]bipyridinyl-4-yl)-phenyl]-ethyl}-acetamide]: the IC50 is 200 nM. `C[C@H](NC(=O)N(C)C)c1ccc(C2CCN(c3cccc(OCC4CC4)c3)CC2)cc1` [Example 1.80]: the IC50 amounted to 530 nM.

Turning to `CC(=O)N[C@@H](C)c1ccc(C2CCN(c3ccc(OCC4CC4C)cc3)CC2)cc1` (stereo partly drawn) [Example 27.1, N-((1S)-1-(4-(1-(4-((2-methylcyclopropyl)methoxy)phenyl)-piperidin-4-yl)phenyl)-ethyl)acetamide], the IC50 worked out at 150 nM. Take `CCOc1ccc(N2CCC(c3ccc([C@H](C)NC(=O)C4(C)CCC4)cc3)CC2)cc1` [Example 6.45]: the IC50 is 2600 nM. Take `CC(=O)N[C@@H](C)c1ccc(C2CCN(c3nccc(-c4ccccc4)n3)CC2)cc1` [Example 4.21]: the IC50 was determined as 520 nM. As for `CCOc1ccc(N2CCC(c3ccc([C@H](C)NC(=O)Nc4ccnnc4)cc3)CC2)cc1` [Example 14.58], the IC50 stood at 7100 nM. As to `CCCOc1ccc(N2CCC(c3ccc([C@H](C)NC(C)=O)cc3)CC2)c(C#N)n1` [Example 1.181], the IC50 was found to be 90 nM.

For `CCOc1ccc(N2CCC(c3ccc([C@H](C)NC(=O)CC#N)cc3)CC2)cc1` [Example 6.1, (S)-2-Cyano-N-(1-{4-[1-(4-ethoxy-phenyl)-piperidin-4-yl]-phenyl}-ethyl)-acetamide], the IC50 worked out at 460 nM. As for `C[C@H](NC(=O)N(C)C)c1ccc(C2CCN(c3ncc(-c4ccc5c(c4)CCO5)cn3)CC2)cc1` [Example 10.99], the figure is 380 nM; as for `CC(=O)N[C@@H](C)c1ccc(C2CCN(c3ncc(-c4ccco4)cn3)CC2)cc1` [Example 10.96], 600 nM. As to `CC(C)Oc1ccc(N2CCC(c3ccc([C@H](C)NC(=O)N(C)C)cc3)CC2)cc1` [Example 1.127], the IC50 is 330 nM.

`CC(=O)N[C@@H](C)c1ccc(C2CCN(c3ccnc(Cl)c3C)CC2)cc1` [Example 5.40]: the IC50 was found to be 410 nM.

Take `CC(=O)N[C@@H](C)c1ccc(C2CCN(c3ccnc(NC(C)C)n3)CC2)cc1` [Example 11.43]: the IC50 was found to be 3300 nM.

`C=CCCOc1cccc(N2CCC(c3ccc([C@H](C)NC(C)=O)cc3)CC2)c1` [Example 9.10]: the IC50 came out at 530 nM. Take `CC(=O)N[C@@H](C)c1ccc(C2CCN(c3ccc(C(C)C)cc3)CC2)cc1` [Example 1.52]: the IC50 is 110 nM. `CCOc1ccc(N2CCC(c3ccc([C@H](C)NC(=O)CC(N)=O)cc3)CC2)cc1` [Example 33.1, (S)—N-(1-{4-[1-(4-Ethoxyphenyl)piperidin-4-yl]phenyl}ethyl)malonamide]: the IC50 was 1700 nM.

As for `CCCOc1ccc(N2CCC(c3ccc([C@H](C)NC(=O)C4CC4)cc3)CC2)nc1` [Example 5.57], the IC50 is 230 nM. In the case of `CC(=O)N[C@@H](C)c1ccc(C2CCN(c3ncc(-c4ccc(OC(F)(F)F)cc4)cn3)CC2)cc1` [Example 10.15], the IC50 is 550 nM. As for `CC(=O)N[C@@H](C)c1ccc(C2CCN(c3ncc(-c4cccc5c4OCC5)cn3)CC2)cc1` [Example 10.92], the figure is 370 nM; as for `CC(=O)N[C@@H](C)c1ccc(C2CCN(c3ccc4oc(C)nc4c3)CC2)cc1` [Example 15.13], 970 nM; as for `CC(=O)N[C@@H](C)c1ccc(C2CCN(c3ncc(-c4ccc5[nH]ncc5c4)cn3)CC2)cc1` [Example 10.86], 5900 nM. For the compound `CC(=O)N[C@@H](C)c1ccc(C2CCN(c3ncc(-c4ccc(C#N)cc4C)cn3)CC2)cc1` [Example 10.61], the IC50 stood at 530 nM. `COc1ccc(Nc2cc(N3CCC(c4ccc([C@H](C)NC(C)=O)cc4)CC3)ncn2)cc1` [Example 11.53]: the IC50 was 6000 nM. Take `COc1nc(N2CCC(c3ccc([C@H](C)NC(C)=O)cc3)CC2)ncc1-c1ccccc1` [Example 21.1, (S)—N-(1-{4-[1-(4-Methoxy-5-phenyl-pyrimidin-2-yl)-piperidin-4-yl]-phenyl}-ethyl)-acetamide]: the IC50 was determined as 260 nM. For the compound `CC(=O)N[C@@H](C)c1ccc(C2CCN(c3ncc(-c4cccc(C#N)c4)cn3)CC2)cc1` [Example 10.80], the IC50 came to 140 nM. Regarding `CC(=O)N[C@@H](C)c1ccc(C2CCN(c3ncc(-c4ccc(F)cc4)cn3)CC2)cc1` [Example 10.9], the IC50 was found to be 20 nM. In the case of `CCC(=O)N[C@@H](C)c1ccc(C2CCN(c3ccc(OCC4CC4)cc3F)CC2)cc1` [Example 1.148], the IC50 is 700 nM. As for `C[C@H](NC(=O)C1CC1)c1ccc(C2CCN(c3ccc(OCC4CCC4)cc3)CC2)cc1` [Example 1.141], the IC50 amounted to 320 nM.

For the compound `CCOc1ccc(N2CCC(c3ccc([C@H](C)NC(=O)C4CCC4)cc3)CC2)cc1` [Example 6.7], the IC50 stood at 770 nM. For the compound `CC(=O)N[C@@H](C)c1ccc(C2CCN(c3ccnc(OCc4ccon4)c3)CC2)cc1` [Example 19.29], the IC50 was found to be 920 nM. To `CC(=O)N[C@@H](C)c1ccc(C2CCN(c3ccnc(OCC(F)F)c3)CC2)cc1` [Example 19.19] belongs 110 nM; to `CC(=O)N[C@@H](C)c1ccc(C2CCN(c3ncc(C(=O)N4CCN(C)CC4)cn3)CC2)cc1` [Example 18.52], 13600 nM; to `CCN(CC)C(=O)c1cnc(N2CCC(c3ccc([C@H](C)NC(C)=O)cc3)CC2)nc1` [Example 18.91], 910 nM. For the compound `CCOc1ccc(N2CCC(c3ccc([C@H](C)NC(=O)C(F)(F)F)cc3)CC2)cc1` [Example 40.2], the IC50 worked out at 80 nM. In the case of `CC(=O)N[C@@H](C)c1ccc(C2CCN(c3ncc(Cl)cn3)CC2)cc1` [Example 4.29], the IC50 came to 1700 nM.

Turning to `CC(=O)N[C@@H](C)c1ccc(C2CCN(c3ccc(OC(C)C)nc3)CC2)cc1` [Example 1.60], the IC50 worked out at 180 nM. Take `CC(=O)N[C@@H](C)c1ccc(C2CCN(c3ncc(-c4cnc(Br)n4C)cn3)CC2)cc1` [Example 10.74]: the IC50 turned out to be 1200 nM.

For `CCC(CC)Oc1ccc(N2CCC(c3ccc([C@H](C)NC(C)=O)cc3)CC2)cc1` [Example 9.33], the IC50 was found to be 120 nM. `COC(=O)N[C@@H](C)c1ccc(C2CCN(c3ccc(OC(C)C)cc3)CC2)cc1` [Example 1.135]: the IC50 was determined as 340 nM. On to `CCOc1ccc(N2CCC(c3ccc([C@H](C)NC(C)=S)cc3)CC2)cc1` [Example 38.1, (S)-N-(1-(4-(1-(4-Ethoxyphenyl)piperidin-4-yl)phenyl)ethyl)ethanethioamide], for which the IC50 stood at 430 nM.

As to `CC(=O)N[C@@H](C)c1ccc(C2CCN(c3csc(-c4ccc(C(F)(F)F)cn4)n3)CC2)cc1` [Example 34.2], the IC50 turned out to be 40 nM. For the compound `CC(=O)N[C@@H](C)c1ccc(C2CCN(c3ccnc(OCC4CCOC4)c3)CC2)cc1` (some centres unmarked) [Example 19.18], the IC50 turned out to be 340 nM. Regarding `CCOc1ccc(N2CCC(c3ccc([C@H](C)NC(C)=O)cc3)CC2)c(OCC)n1` [Example 1.180], the IC50 was found to be 530 nM.

For the compound `COc1ccc(N2CCC(c3ccc([C@H](C)NC(C)=O)cc3)CC2)cc1` [Example 1.30], the IC50 is 230 nM. `CC(=O)N[C@@H](C)c1ccc(C2CCN(c3cc(I)ccn3)CC2)cc1` [Example 5.17]: the IC50 came to 1200 nM.

Regarding `CC(=O)N[C@@H](C)c1ccc(C2CCN(c3ccc4ccccc4n3)CC2)cc1` [Example 4.3], the IC50 came to 450 nM. As for `C[C@H](NC(=O)C1CC1)c1ccc(C2CCN(c3ncc(-c4ccc5c(c4)CCO5)cn3)CC2)cc1` [Example 10.98], the figure is 900 nM. Regarding `CC(=O)N[C@@H](C)c1ccc(C2CCN(c3cc(OCC4(C#N)CC4)ncn3)CC2)cc1` [Example 11.35], the IC50 turned out to be 710 nM. To `CCC(C)Oc1ccc(N2CCC(c3ccc([C@H](C)NC(=O)OC)cc3)CC2)cc1` (some centres unmarked) [Example 1.130] belongs 80 nM; to `CC(=O)N[C@@H](C)c1ccc(C2CCN(c3ncc(C(=O)NCc4ccccn4)cn3)CC2)cc1` [Example 18.13], 6100 nM. As to `COc1ccc(-c2cnc(N3CCC(c4ccc([C@H](C)NC(C)=O)cc4)CC3)nc2)cc1` [Example 4.41], the IC50 was 100 nM.
